The values below come from PMC7321301, “Characteristics of New Peptides GQLGEHGGAGMG, GEHGGAGMGGGQFQPV, EQGFLPGPEESGR, RLARAGLAQ, YGNPVGGVGH, and GNPVGGVGHGTTGT as Inhibitors of Enzymes Involved in Metabolic Syndrome and Antimicrobial Potential” (Molecules, 2020).

In one data set the test system is HECa10 cells. Description: Neutral red (NR) test. Type of data set: cell-based, murine. To be noted: 24-h incubation, 0.1–100 µg/mL. As for the experimental part:
The study was conducted according to the procedure described by Rokicki et al.. HECa10 cells after 80–90% confluence were trypsinized (3 min, 37 °C), centrifuged (300 g, 5 min), counted, and plated in 96-well plates at a concentration of 1 × 10^4 cells/well. Then, 24 h after seeding, cells were washed with phosphate-buffered saline (PBS) solution and culture medium (Dulbecco’s Modified Eagle Medium (DMEM) + 10% fetal bovine serum (FBS) + antibiotics, all from Life Technologies, Warsaw, Poland) was added with test factors in concentrations: 0.1; 1; 5; 10; 50; 100 µg/mL). Then, 24 h after addition of the compounds, proliferation tests (MTT, NR, LDH) were performed. The color intensity was determined using a Fluostar Omega microplate reader. Results are presented as the mean ± SD of 3 independent experiments (n = 12).
The cells were seeded in a 96-well culture plate at a concentration of 1 × 10^4 cells/well. Then, 24 h after seeding, the cells were rinsed twice with PBS (Life Technologies, Poland) and resuspended in fresh growth medium. Peptide fractions were added at concentrations of 0 (control), 0.1, 1, 5, 10, 50, and 100 µg/mL. After 24 h of incubation with the proteins, the uptake of the neutral red (NR kit, Sigma Aldrich, Poznań, Poland,) was assessed. The absorption was measured at a wavelength of 540 nm with the background cutoff at 690 nm (FLUOstar Omega, BMG Labtech GmbH, Ortenberg, Germany). The results are presented as the percentage of the control values (mean ± SD). Each assay was performed in triplicate (n = 18).

A further data set deals with T1, pancreatic lipase (Homo sapiens, UniProt P16233).
T1 sequence (P16233 17-465): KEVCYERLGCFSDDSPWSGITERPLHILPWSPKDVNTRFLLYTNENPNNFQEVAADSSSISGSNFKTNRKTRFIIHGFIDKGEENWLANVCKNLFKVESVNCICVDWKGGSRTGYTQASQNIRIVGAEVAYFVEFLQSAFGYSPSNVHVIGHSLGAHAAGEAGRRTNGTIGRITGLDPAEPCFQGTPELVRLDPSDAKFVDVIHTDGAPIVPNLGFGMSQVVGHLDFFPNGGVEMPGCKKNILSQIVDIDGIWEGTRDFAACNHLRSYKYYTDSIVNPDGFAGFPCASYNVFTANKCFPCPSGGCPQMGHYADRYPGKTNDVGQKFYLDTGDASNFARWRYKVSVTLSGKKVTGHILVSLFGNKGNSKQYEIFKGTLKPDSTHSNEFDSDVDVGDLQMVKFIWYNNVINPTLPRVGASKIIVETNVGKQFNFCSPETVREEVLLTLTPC
Description: Pancreatic lipase inhibitory activity (pNPA) and kinetics. Type of data set: biochemical. To be noted: mean ± SD, triplicate. As for the experimental part:
(§1) For all inhibitory activity, IC50 was calculated. The IC50 value defined as the concentration of the extract inhibiting 50% of the enzyme activity was determined by measuring the enzyme inhibitory activity and peptide contents in each sample. The IC50 value was calculated from the plotted graph of the inhibition activity for the five different peptide concentrations.
Lipase inhibitory activity was determined with the method described by Jakubczyk et al.. The final volume of the reaction mixture was 150 μL (2 μL of the enzyme, 5 μL of the sample, 142 μL of 100 mM potassium phosphate buffer, pH 7.5, and 1 μL of a 100 mM p-nitrophenyl acetate (pNPA) solution in dimethyl sulfoxide (DMSO). Changes in absorbance at […] were measured using BioTek Microplate Readers.
(§2) Substrate solutions (5.0, 10.0, 15.0, and 20.0 mM) were prepared and used to determine the Michaelis constant (Km), the inhibition constant (Ki), and the maximum velocity (Vmax) of enzymes. The kinetic parameters were evaluated by Lineweaver–Burk’s method. The reaction conditions were the same as in the enzyme inhibitory activity assay.

The next data set concerns the target T2, COX-1 (Ovis aries, UniProt P05979).
T2 sequence (P05979 25-600): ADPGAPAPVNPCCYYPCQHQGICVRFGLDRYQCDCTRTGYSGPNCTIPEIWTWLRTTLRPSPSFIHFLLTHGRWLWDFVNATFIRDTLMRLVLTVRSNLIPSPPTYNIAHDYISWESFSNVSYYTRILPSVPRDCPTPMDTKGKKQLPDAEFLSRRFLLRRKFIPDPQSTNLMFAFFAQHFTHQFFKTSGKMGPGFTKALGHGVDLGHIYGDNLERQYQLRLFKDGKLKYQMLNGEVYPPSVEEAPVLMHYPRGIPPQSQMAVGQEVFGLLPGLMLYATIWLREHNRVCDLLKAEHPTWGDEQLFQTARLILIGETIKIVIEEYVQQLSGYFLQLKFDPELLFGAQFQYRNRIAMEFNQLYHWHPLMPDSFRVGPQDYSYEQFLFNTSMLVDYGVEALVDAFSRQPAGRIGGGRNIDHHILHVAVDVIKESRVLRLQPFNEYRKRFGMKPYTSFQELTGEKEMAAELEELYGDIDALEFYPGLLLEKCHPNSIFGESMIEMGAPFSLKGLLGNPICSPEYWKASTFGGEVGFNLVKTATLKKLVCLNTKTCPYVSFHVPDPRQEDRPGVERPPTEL
The data set is described as follows: COX-1 inhibitory activity (COX Activity Assay kit) and kinetics. Type of data set: biochemical. As for the experimental part:
For all inhibitory activity, IC50 was calculated. […] The IC50 value was calculated from the plotted graph of the inhibition activity for the five different peptide concentrations. The effect of the peptide on COX-1 and COX-2 was measured using the COX Activity Assay kit from Cayman Chemical (Item No. 760151, Ann Arbor, MI, USA). COX activity was determined according to the instructions provided with the kit. The enzyme activity was assayed by calorimetric measurement of the appearance of oxidized N,N,N′,N′-Tetramethyl-p-phenylenediamine (TMPD) at 590 nm using BioTek Microplate Readers (Epoch™ 2 BioTek, Bad Friedrichshall, Germany). […] The kinetic parameters were evaluated by Lineweaver–Burk’s method. The reaction conditions were the same as in the enzyme inhibitory activity assay.

For a further data set, the target named is LOX (Glycine max, UniProt P08170). The class given is biochemical. To be noted: read-out: IC50 LOX. As for the experimental part: as §1
The LOX inhibitory assay was carried out with the method described by Szymanowska et al.. A solution of pure linoleic acid was used as a substrate. First, 157.2 µl of pure linoleic acid was mixed with 157.2 µL of Tween-20 and 10 mL of deionized water. The substrate was clarified with 1 mL of 1 M NaOH and M/15 phosphate buffer pH = 7.0 was added to the volume of 200 mL. The enzymatic reaction mixture contained 297 µL of M/15 phosphate buffer pH = 7, 2 µl of the substrate solution, and 1 µL of the enzyme solution. A mixture of 298 µl of phosphate buffer (pH 7.0) and 2 µL of the substrate solution was used to calibrate the spectrophotometer. Changes in absorbance at 234 nm were measured using BioTek Microplate Readers.
as §2

Where two headings read alike, the source gives them in different places. No end group written: not given here.

Chain of LOX (P08170 whole entry): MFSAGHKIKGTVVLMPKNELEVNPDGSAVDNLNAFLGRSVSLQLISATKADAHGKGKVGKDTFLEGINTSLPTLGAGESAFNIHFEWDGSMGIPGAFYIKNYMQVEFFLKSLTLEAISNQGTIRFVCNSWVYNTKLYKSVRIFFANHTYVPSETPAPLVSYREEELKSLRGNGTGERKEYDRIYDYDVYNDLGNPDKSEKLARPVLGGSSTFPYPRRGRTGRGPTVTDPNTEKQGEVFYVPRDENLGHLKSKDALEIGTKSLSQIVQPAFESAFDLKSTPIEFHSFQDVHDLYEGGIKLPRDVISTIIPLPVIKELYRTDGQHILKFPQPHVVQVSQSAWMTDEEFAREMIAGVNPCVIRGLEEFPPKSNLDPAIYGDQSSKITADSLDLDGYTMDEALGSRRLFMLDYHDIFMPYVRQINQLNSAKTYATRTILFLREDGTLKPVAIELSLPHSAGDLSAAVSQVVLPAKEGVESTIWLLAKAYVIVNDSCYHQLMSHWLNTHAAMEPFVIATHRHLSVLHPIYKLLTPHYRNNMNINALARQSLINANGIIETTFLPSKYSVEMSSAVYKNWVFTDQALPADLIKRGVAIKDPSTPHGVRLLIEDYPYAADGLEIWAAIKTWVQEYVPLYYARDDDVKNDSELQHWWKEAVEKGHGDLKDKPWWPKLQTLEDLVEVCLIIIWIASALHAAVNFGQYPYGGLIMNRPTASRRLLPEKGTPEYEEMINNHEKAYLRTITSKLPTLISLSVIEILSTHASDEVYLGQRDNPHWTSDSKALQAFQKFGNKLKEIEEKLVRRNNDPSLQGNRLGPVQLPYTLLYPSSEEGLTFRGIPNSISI

Turning to EQGFLPGPEESGR [ER-13, EQGFLPGPEESGR], the “NR test, HECa10 cell count compared to control” value (shortened to “NR test … compared to control”) in the data set with HECa10 cells is “no statistically significant differences”. Besides, the IC50 – broadly, the point on the concentration scale where inhibition reaches its midpoint – is 54.8 µM on pancreatic lipase, 4.78 µM against COX-1 and 60.1 µM on LOX.
On to “GEHGGAGMGGGQFQPV [GV-16, GEHGGAGMGGGQFQPV]”, for which the “NR test … compared to control” value with HECa10 cells is “no statistically significant differences”. Also, the IC50 against pancreatic lipase is 41.9 µM; against COX-1 it was 8 µM; on LOX it was 68.5 µM.
For the sequence GNPVGGVGHGTTGT [GT-14, GNPVGGVGHGTTGT], the “NR test … compared to control” value with HECa10 cells is “no statistically significant differences”. Moreover, the IC50 on pancreatic lipase was 86.1 µM; on COX-1 it was 12.3 µM; at LOX, 153 µM.
In the same order, the values of GQLGEHGGAGMG [GG-12, GQLGEHGGAGMG] are “no statistically significant differences”, 56.6 µM, 7.11 µM and 131 µM.
As for RLARAGLAQ [RQ-9, RLARAGLAQ], in the data set with HECa10 cells, the “NR test … compared to control” value was “no statistically significant differences”. The half-maximal inhibitory concentration (IC50) is 102 µM against pancreatic lipase; 0.325 µM against COX-1; 205 µM on LOX (mean ± SD, triplicate).
As for YGNPVGGVGH [YH-10, YGNPVGGVGH], in the data set with HECa10 cells, the “NR test … compared to control” value is “declined statistically significantly”. For the same sequence, the IC50 at pancreatic lipase was 107 µM; against COX-1, 17.4 µM; on LOX, 127 µM.
